# Patent US12527818B2, “Platinum-based chemotherapy, mast binding agents, glucocorticoid receptor (GR) binding agents, and/or HSP90 binding agents for uses in treating cancer” (Emory University, priority 2019, dated 2026)
# “Also recorded” adds a separate entry of the source. Peptide text beside a SMILES is read from it. * marks the point of attachment. Cbz = O=C(OCc1ccccc1)*
# Legend:
# [1] = test system: KB-3-1cisR xenograft tumors; test: Xenograft mice bearing KB-3-1cisR tumors treated with 17-AAG and cisplatin; format: in vivo
# Description: Mice were treated with cisplatin (5 mg/kg) and 17-AAG (50 mg/kg) from 5 days after xenograft.
# (§1) These in vitro observations were confirmed in vivo.
# (§2) Experiments were performed to determine whether ubiquitination of MAST1 at K317 and K545 upon hsp90 inhibition is involved in MAST1-mediated cisplatin-resistant cancer cell proliferation and tumor growth. […] The effect of MAST1 WT or 2KR was monitored in cells with MAST1 knockdown. […] This finding was further validated in vivo.
# hsp90A = hsp90A (Homo sapiens, UniProt P07900)
# MAST1 [2] = test: MAST1 protein level in cancer cells upon 17-AAG treatment; format: cell-based, human
# Description: (§3) Proteins that interact with MAST1 in cells were investigated through 2-dimensional (2D) gel electrophoresis-based proteomic profiling. GST or GST-fused MAST1 was pulled down from human 293T cells. The protein captured by GST-MAST1 but not by GST alone was excised from the 2D gel. Through mass spectrometry-based (MS-based) proteomic analysis, hsp90B was identified as a potential binding partner of MAST1. […] Experiments were performed to determine whether the interaction is limited to the hsp90B isoform by comparing the interaction between MAST1 and hsp90B or hsp90A. Hsp90A, another isoform of hsp90, also binds to MAST1 in cisplatin-resistant cancer cells. Although hsp90A binds to MAST1 in cisplatin-resistant cancer cells, the interaction was weaker compared with hsp90B. […] Experiments were performed to determine whether treatment with 17-AAG, a selective inhibitor of hsp90, alters MAST1 protein levels in cells.
# Through a MS-based proteomic analysis, it was identified that MAST1 is specifically ubiquitinated at lysine residues K317 and K545 upon hsp90 inhibition. To investigate whether these 2 residues are the main ubiquitination sites of MAST1 that mediate proteasomal degradation upon hsp90 inhibition, the lysine-to-arginine mutant forms of MAST1, K317R, K545R, and the double KR mutant K317R/K545R (2KR) were generated.
# as §2
# hsp90B = hsp90B (Homo sapiens, UniProt P08238)
# hsp90B, sequence (P08238 whole entry): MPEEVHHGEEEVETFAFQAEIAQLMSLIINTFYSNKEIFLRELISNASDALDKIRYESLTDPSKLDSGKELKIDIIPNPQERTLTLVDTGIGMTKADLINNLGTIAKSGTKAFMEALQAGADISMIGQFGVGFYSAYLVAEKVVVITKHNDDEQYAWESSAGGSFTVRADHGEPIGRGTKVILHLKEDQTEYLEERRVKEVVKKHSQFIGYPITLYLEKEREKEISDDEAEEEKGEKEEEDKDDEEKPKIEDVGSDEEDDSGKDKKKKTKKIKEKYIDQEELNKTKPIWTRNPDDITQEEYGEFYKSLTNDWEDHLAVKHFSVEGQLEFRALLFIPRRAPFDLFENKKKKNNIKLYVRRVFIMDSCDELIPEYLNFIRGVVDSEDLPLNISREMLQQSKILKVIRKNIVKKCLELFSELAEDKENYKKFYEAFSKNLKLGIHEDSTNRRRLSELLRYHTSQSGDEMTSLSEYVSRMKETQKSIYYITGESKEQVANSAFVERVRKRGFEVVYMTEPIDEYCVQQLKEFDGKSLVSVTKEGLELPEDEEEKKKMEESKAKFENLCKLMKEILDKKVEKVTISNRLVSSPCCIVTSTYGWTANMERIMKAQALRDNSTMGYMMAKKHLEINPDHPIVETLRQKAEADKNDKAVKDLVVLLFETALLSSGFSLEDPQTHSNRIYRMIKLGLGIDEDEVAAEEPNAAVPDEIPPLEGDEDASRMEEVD
# MAST1 mRNA = MAST1 mRNA expression upon 17-AAG treatment; format: cell-based, human
# AKT or cRaf = test: Protein levels of other hsp90 client proteins upon 17-AAG treatment; format: cell-based, human; conditions: same doses of 17-AAG as diminish MAST1
# Description: as §3
# (§4) The ubiquitination status of MAST1 in the presence and absence of hsp90 was assessed. […] This was further confirmed in cisplatin-resistant cancer cells.
# MEK1 [3] = test: MEK1 activity in cisplatin-resistant cells upon 17-AAG treatment; format: cell-based, human; conditions: MAST1 WT
# Description: as §2
# [4] = test system: cisplatin-resistant cancer cells; test: Cisplatin response and cell viability of cisplatin-resistant cancer cells with 17-AAG; format: cell-based, human
# Description: as §1, §2
# MAST1 [5] = test: MAST1 ubiquitination and degradation with proteasome inhibitor; format: cell-based, human
# Description: as §4
# [6] = test system: KB-3-1 xenografted tumors; test: Xenograft mice bearing KB-3-1 tumors treated with cisplatin; format: in vivo
# Description: (§5) Experiments were performed to determine whether MAST1 is induced by cisplatin treatment. Cell line-based studies indicate that MAST1 is increased upon cisplatin treatment in three cancer cell lines, KB-3-1, A549, and A2780. To validate this observation in vivo, cisplatin-resistant tumors were established by treating KB-3-1 bearing mice with sub-effective doses of cisplatin. The MAST1 gene was induced in xenografted tumors after cisplatin administration in mice. […] Cisplatin-resistant refers to patients with tumor recurrence within two years of cisplatin or carboplatin-based chemotherapy.
# To explore the molecular mechanism by which the transcription factor activity of GR is enhanced by cisplatin treatment, the intracellular location of GR in cisplatin-treated cells was investigated. GR resides predominantly in the cytoplasm as part of a heterooligomeric complex of HSP 40, 70, and 90 and other proteins. Binding to its agonist ligand changes the conformation of GR, which dissociates from the HSPs and possibly other protein factors, and translocates into the nucleus. The nuclear translocated GR is considered to be activated GR. Thus, experiment were performed to determine whether cisplatin treatment changes the cellular location of GR from the cytosol to the nucleus in cancer cells. […] This observation was confirmed in vivo in xenograft mice. […]
# 96 cellular TFs = test: Transcription Factor Activation Profiling Array; format: cell-based, human; conditions: cisplatin treated vs nontreated KB-3-1 cells
# Description: (§6) The Transcription Factor Activation Profiling Array detects activities of 96 cellular TFs, including HIF1, p53, and NF-kB, which are essential in regulating cellular gene expression. Among the 96 TFs, 6 were activated more than 1.8-fold when cells were treated with cisplatin, including GR/[…] (PR), NFAT, ATF2, CAR, and CBF. To investigate whether any of these TFs activate the MAST1 promoter, these 6 TFs were knocked down in KB-3-1 cells and a MAST1 promoter reporter activity assay was performed in the presence of cisplatin. Knockdown of GR but not other TFs attenuated MAST1 promoter activity. In addition, modulation of GR affected MAST1 promoter activity in the presence of cisplatin in cancer cells. Target downregulation or overexpression of GR abolished or enhanced MAST1 promoter activity in a cisplatin dose-dependent manner in KB-3-1 cells. In line with the changes seen in MAST1 mRNA, MAST1 protein level correlated with GR level in cancer cells (FIG. 3D).
# MAST1 [7] = test: MAST1 induction by cisplatin in cancer cell lines; format: cell-based, human; conditions: KB-3-1, A549, and A2780 cell lines
# Description: as §5
# GR = GR intracellular location by immunofluorescence staining; format: cell-based, human; conditions: KB-3-1 cancer cell line
# Excerpt: To explore the molecular mechanism by which the transcription factor activity of GR is enhanced by cisplatin treatment, the intracellular location of GR in cisplatin-treated cells was investigated. GR resides predominantly in the cytoplasm as part of a heterooligomeric complex of HSP 40, 70, and 90 and other proteins. Binding to its agonist ligand changes the conformation of GR, which dissociates from the HSPs and possibly other protein factors, and translocates into the nucleus. The nuclear translocated GR is considered to be activated GR. Thus, experiment were performed to determine whether cisplatin treatment changes the cellular location of GR from the cytosol to the nucleus in cancer cells. […] This observation was confirmed in vivo in xenograft mice. […] Furthermore, the translocation of GR was found in paired primary HNSCC patient tumors. GR was located mainly in the cytosol in tumors collected from patients before cisplatin or carboplatin therapy, whereas the GR was predominantly stained in the nucleus in tumors collected from patients after the therapy. These experiments indicate that cisplatin treatment activates GR by translocating it to the nucleus in cancer cells.
# MAST1 promoter = MAST1 promoter reporter activity assay; format: cell-based, human; conditions: pMAST1-luc reporter
# Description: as §6
# GR binds to the glucocorticoid response element (GRE) on DNA within the promoter region and regulates genes. A GRE was identified within the MAST1 promoter sequence at −44 to −58. […]
# GR, MAST1 = test: Dexamethasone effect on GR activity, MAST1 expression and cisplatin-resistant tumor growth; conditions: treatment with dexamethasone
# [8] = test system: ovarian cancer and head and neck cancer PDX; test: Tumor volume in PDX mice treated with cisplatin, dexamethasone and lestaurtinib; format: in vivo; conditions: 5 mg/kg cisplatin, 0.1 mg/kg dexamethasone twice/week, 20 mg/kg lestaurtinib daily
# Description: Tumor volumes were measured by caliper.
# Therefore, we performed pilot experiments in vitro and in vivo to examine the concept.
# MEK1 [9] = test: MEK1 activity by p-MEK1 S217/S221 blot, GR antagonist or agonist with cisplatin; format: cell-based, human; conditions: KB-3-1 cells
# Description: (§7) Loss of GR sensitizes cells to cisplatin. GR was inhibited by shRNA (top) or by antagonist (bottom) in the presence or absence of cisplatin. Cell viability and MEK activity was measured by CellTiter-Glo™ Luminescent Cell Viability assay and p-MEK1 S217/S221 blot, respectively. Cisplatin: 1 μg/ml, Mifepristone: 10 μM.
# (§8) GR was enhanced by overexpression (top) or agonist (bottom) and cell viability and MEK1 activity was measured, cisplatin: 3 μg/ml, dexamethasone: 0.5 μM.
# (§9) To investigate whether GR contributes to cisplatin resistance in cancer cells, GR was genetically or pharmacologically modulated and changes in cisplatin-resistant cancer cell proliferation as well as the activity of MEK1, which is the predominant substrate of MAST1, was monitored. […] Exogenous overexpression of myc tagged MAST1 restored the attenuated cisplatin-resistant cell growth and MEK1 activity in KB-3-1 cells with GR inhibition either by GR shRNA or GR antagonist mifepristone (FIG. 2A). […] In contrast, reduction of MAST1 by shRNA abolished the elevated cisplatin resistant cancer cell proliferation and MEK1 activity in KB-3-1 cells with activated GR either by flag-GR overexpression or GR agonist dexamethasone (FIG. 2C). Knockdown of MAST1 dramatically attenuated cisplatin resistant tumor growth in xenograft mice bearing flag-GR stably overexpressed KB-3-1 cells (FIG. 2D).
# KB-3-1 cells = test: CellTiter-Glo Luminescent Cell Viability assay, GR antagonist or agonist with cisplatin; format: cell-based, human
# Description: as §7, §8, §9
# [10] = cisplatin 3 μg/ml, dexamethasone 0.5 μM
# [11] = cisplatin 1 μg/ml, mifepristone 10 μM
structure (smiles),measurement,setting,value
"C=CCNC1=C2CC(C)CC(OC)C(O)C(C)C=C(C)C(OC(N)=O)C(OC)C=CC=C(C)C(=O)NC(=CC1=O)C2=O (centres unmarked) [17-AAG, 19-(allylamino)-13-hydroxy-8,14-dimethoxy-4,10,12,16-tetramethyl-3,20,22-trioxo-2-azabicyclo[16.3.1]docosa-1(21),4,6,10,18-pentaen-9-yl carbamate]","tumor growth, MAST1 2KR xenograft tumors","[1]; KB-3-1cisR MAST1 2KR, cisplatin (5 mg/kg) and 17-AAG (50 mg/kg)",resistant to these effects of 17-AAG treatment
same,"tumor growth, MAST1 WT xenograft tumors","[1]; KB-3-1cisR MAST1 WT, cisplatin (5 mg/kg) and 17-AAG (50 mg/kg)",attenuated tumor growth upon cisplatin exposure
same,MAST1 protein level in xenograft tumors,"[1]; xenograft mice, with cisplatin",decreased
same,xenograft tumor response to cisplatin,"[1]; xenograft mice, with cisplatin",sensitized xenograft tumors to cisplatin
same,binding to hsp90A (SPR),hsp90A,binds to both hsp90A and hsp90B
same,2KR MAST1 protein,MAST1 [2]; MAST1 K317R/K545R (2KR),remained intact
same,wild-type (WT) MAST1 protein,MAST1 [2]; MAST1 WT,degraded upon 17-AAG treatment in a dose-dependent manner
same,MAST1 protein levels,MAST1 [2]; cancer cells,diminished MAST1 protein levels in a dose-dependent manner; also recorded: decreased the level of MAST1
same,binding to hsp90B (SPR),hsp90B,binds to both hsp90A and hsp90B
same,MAST1 mRNA expression levels,MAST1 mRNA,remained unchanged
same,protein levels of hsp90 client proteins AKT or cRaf,AKT or cRaf,insufficient to decrease
same,activity of the downstream substrate MEK1,MEK1 [3],attenuated activity of the downstream substrate MEK1
same,"cell viability and cisplatin resistance, cells expressing MAST1 2KR","[4]; MAST1 2KR, in the presence of cisplatin",no significant decrease in cell viability and cisplatin resistance
same,"cell viability and cisplatin resistance, cells expressing MAST1 WT","[4]; MAST1 WT, in the presence of cisplatin",sensitive to 17-AAG treatment
same,cisplatin resistance of cisplatin-resistant cancer cells,[4]; with cisplatin,significantly sensitized cisplatin-resistant cancer cells to cisplatin
CC(C)C[C@@H](C=O)NC(=O)[C@H](CC(C)C)NC(=O)[C@H](CC(C)C)NC(=O)OCc1ccccc1 [MG-132] (Cbz-Leu-Leu-Leu-aldehyde),17-AAG-mediated MAST1 degradation,MAST1 [5]; 293T cells,prevented 17-AAG-mediated MAST1 degradation
same,MAST1 ubiquitination,MAST1 [5]; proteasome inhibitor treatment,led to MAST1 ubiquitination
N.N.[Cl][Pt][Cl] [cisplatin],GR location in xenograft tumors,[6]; administration of cisplatin,nuclear translocation of GR
same,MAST1 gene in xenografted tumors,[6]; after cisplatin administration in mice,induced
same,"transcription factor activation (6 of 96 TFs incl. GR/PR, NFAT, ATF2, CAR, CBF)",96 cellular TFs,more than 1.8 fold
same,MAST1 level upon cisplatin treatment,MAST1 [7],increased
same,GR cellular location,GR,translocated from the cytosol to the nucleus
same,WT MAST1 promoter activity,MAST1 promoter,induced WT MAST1 promoter activity
"CC1CC2C3CCC4=CC(=O)C=CC4(C)C3(F)C(O)CC2(C)C1(O)C(=O)CO (centres unmarked) [dexamethasone, 9-fluoro-11,17-dihydroxy-17-(2-hydroxyacetyl)-10,13,16-trimethyl-6,7,8,9,10,11,12,13,14,15,16,17-dodecahydro-3H-cyclopenta [a]phenanthren-3-one]","GR activity, MAST1 expression, cisplatin-resistant tumor growth","GR, MAST1","enhanced GR activity, MAST1 expression, and cisplatin-resistant tumor growth"
same,tumor growth (tumor volume),[8],abolished the cisplatin effect
same,MEK1 activity,MEK1 [9]; [10],reactivation of MEK1
same,cisplatin response (cell viability),KB-3-1 cells; [10],conferred cisplatin resistance to cancer cells
"CC#CC1(O)CCC2C3CCC4=CC(=O)CCC4=C3C(c3ccc(N(C)C)cc3)CC21C (centres unmarked) [mifepristone, 11-(4-(dimethylamino)phenyl)-17-hydroxy-13-methyl-17-(prop-1-yn-1-yl)-1,2,6,7,8,11,12,13,14,15, 16,17-dodecahydro-3H-cyclopenta[a]phenanthren-3-one]",MEK1 activity (MEK1 phosphorylation at S217/S221),MEK1 [9]; [11],attenuated MEK1 activity
same,cisplatin response (cell viability),KB-3-1 cells; [11],sensitized cancer cells to cisplatin treatment
